Where two headings read alike, the source gives them in different places.
Legend:
Caki-1 (kidney) = assay: In vitro cell proliferation assay (SRB), Caki-1; type: cell-based; conditions: Homo sapiens, SRB method, 96 hours, read-out: Inhibition of cell growth (IC50, μM) Caki-1
Description: (§1) Cancer cell lines to determine the effect of 5, 6, or 7-substituted-3-(hetero)arylisoquinolinamine compounds were obtained from the following sources: Human MDA-MB-231 (breast), PC3 (prostate), HCT-15 (colon), HCT116 (colon), OVCAR-3 (ovary), Caki-1 (kidney), PANC-1 (pancreas), SNB-19 (glioblastoma) and SK-MEL-28 (melanoma) from the American Type Culture Collection (ATCC) (Manassas, Va.). PC3, OVCAR-3, SK-MEL-28 and SNB-19 were grown in RPMI1640 medium (Invitrogen, Carlsbad, Calif.) supplemented with 10% fetal bovine serum (“FBS”), 1 mM sodium pyruvate, 10 mM HEPES and 100 U/ml penicillin and 100 μg/ml streptomycin (“P/S”). MDA-MB-231, Caki-1, HCT-15 (colon) and PANC-1 cells were maintained in Dulbecco's modified Eagle's medium (“DMEM”, Invitrogen) supplemented with 10% FBS, P/S and 10 mM HEPES. HCT116 cells were maintained in DMEM supplemented with 10% FBS, P/S and 10 mM HEPES for in vitro cell proliferation assay and in RPMI1640 medium supplemented with 10% FBS, 1 mM sodium pyruvate, 10 mM HEPES and P/S for in vitro cell cycle analysis. All cells were incubated at 37° C. under humidified 5% CO2.
(§2) The growth inhibition of the 5, 6, or 7-substituted-3-(hetero)arylisoquinolinamine derivatives against a variety of human tumor cells was evaluated to study the relative importance of particular substituent groups on the compounds. The 5, 6, or 7-substituted-3-(hetero)arylisoquinolinamine derivatives, prepared as described above, were tested with DMSO as a control.
(§3) The growth inhibition assay of representative 5, 6, or 7-substituted-3-(hetero)arylisoquinolinamine derivatives against human tumor cell lines was performed using the Sulforhodamine B (“SRB”) method (Skehan et al., J. National Cancer Institute, 82: 1107-1112 (1990)). Briefly, exponentially growing tumor cells were seeded into a 96-well plate at a density of 2-3×10^3 cells/well and treated with 5, 6, or 7-substituted-3-(hetero)arylisoquinolinamine compounds the next day. Triplicate wells were used for each treatment. The cells were incubated with the various compounds for 96 hours at 37° C. in a humidified 5% CO2 atmosphere. After 96-hour incubation, cells were fixed with 10% trichloroacetic acid (“TCA”), incubated for 1 hour at 4° C., and washed 3 times with tap water. Subsequently, cells were stained with 0.4% sulforhodamine B in 1% acetic acid for 30 minutes, washed 4 times with 1% acetic acid, and air-dried again. After 5 minutes agitation in 10 mM Tris solution, the absorbance of each well was measured at 530 nm using Benchmark Plus Microplate reader (Bio-Rad Laboratories, Hercules, Calif.).
(§4) To translate the OD530 values into the number of live cells in each well, the OD530 values were compared to those on standard OD530-versus-cell number curves generated for each cell line. The percent survival was calculated using the formula: % Survival=live cell number [test]/live cell number [control]×100
(§5) The IC50 values were calculated by non-linear regression analysis.

human cancer cell lines = assay: Growth inhibition against the panel of human tumor cell lines (SRB), overall statements; type: cell-based; conditions: Table 3 cell lines
Description: as §1, §2, §3, §4, §5
Using QSAR and medicinal chemistry techniques, a large number of compounds, including the compounds shown in Table 1-2 above, were synthesized. The synthesized compounds were screened against at least four cancer cell lines, PANC-1, MDA-MB-231, HCT116 and Caki-1, at approximately 1 μM concentration. Compounds showing activity in at least one of these cell lines were selected for further screening. From these compounds, thirty compounds were selected for further evaluation as broad-spectrum anti-proliferative agents as shown in the following Table 3.

SNB-19 (glioblastoma) = assay: In vitro cell proliferation assay (SRB), SNB19; type: cell-based; conditions: Homo sapiens, SRB method, 96 hours, read-out: Inhibition of cell growth (IC50, μM) SNB19
Description: as §1, §2, §3, §4, §5

MDA-MB-231 (breast) = assay: In vitro cell proliferation assay (SRB), MDA-MB-231; type: cell-based; conditions: Homo sapiens, SRB method, 96 hours, read-out: Inhibition of cell growth (IC50, μM) MDA-MB-231
Description: as §1, §2, §3, §4, §5

HCT116 (colon) = assay: In vitro cell proliferation assay (SRB), HCT116; type: cell-based; conditions: Homo sapiens, HCT-116
Description: as §1, §2, §3, §4, §5

SK-MEL-28 (melanoma) = assay: In vitro cell proliferation assay (SRB), SK-MEL-28; type: cell-based; conditions: Homo sapiens, SRB method, 96 hours, read-out: Inhibition of cell growth (IC50, μM) SK-MEL-28
Description: as §1, §2, §3, §4, §5

PC3 (prostate) = assay: In vitro cell proliferation assay (SRB), PC3; type: cell-based; conditions: Homo sapiens; SRB method, 96 hours; read-out: Inhibition of cell growth (IC50, μM) PC3
Description: as §1, §2, §3, §4, §5

PANC-1 (pancreas) = assay: In vitro cell proliferation assay (SRB), PANC-1; type: cell-based; conditions: Homo sapiens, SRB method, 96 hours, read-out: Inhibition of cell growth (IC50, μM) PANC-1
Description: as §1, §2, §3, §4, §5

[1] = tested on: HCT15 human colon carcinoma xenografts; assay: Ex vivo xenograft study of nude mice; type: in vivo; conditions: 10 mg/kg/day intraperitoneal, three times per week; for % Inhibition of HCT-15 human colorectal cancer in mice at 29 days: day 10 to day 29, nude mice
Description: In order to observe the inhibition of growth of tumor in an animal model, an ex vivo xenograft study of nude mice was conducted utilizing Compound 13. Paclitaxel-resistant HCT15 cell suspension (1×10^6 cells in 0.2 ml of RPMI) was injected subcutaneously into the right flank of six-week-old female athymic mice (BALB/c nu/nu) on day 0. A sufficient number of mice were injected with HCT15 cell suspension so that tumors in a volume range as narrow as possible were selected for the trial on the day of treatment initiation. Animals with tumors in the proper size range were assigned to various treatment groups. Palcitaxel was used as a positive control. Compound 13 and paclitaxel were dissolved in 5 Cremophor and 5% ethanol in PBS and solvent alone served as vehicle control. All study medications (vehicle control, paclitaxel: 10 mg/kg/day, Compound 13: 10 mg/kg/day) were given by intraperitoneal injections three times per week starting from day 10 and ending on day 29 after inoculation of HCT15 cells. To quantify tumor growth, three perpendicular diameters of the tumors were measured with calipers every 3-5 days, and the body weight of the mice was monitored for toxicity. The tumor volume was calculated using the formula: tumor volume (mm^3)=(width)×(length)×(height)×π/6.

[2] = tested on: paclitaxel-resistant HCT-15 colorectal cancer cells; assay: In vitro antitumor effects against paclitaxel-resistant HCT-15 cells; type: cell-based, Human; conditions: for IC50: Homo sapiens, paclitaxel-resistant HCT-15, Table 5, read-out: Inhibition of cell growth, IC50 (μM) HCT-15; for antitumor activity compared with paclitaxel: paclitaxel-resistant HCT-15 colorectal cancer cells
Description: as §1, §3, §4, §5
Compound 13 and 14 were tested in colon cancer cells and their antitumor activities were compared with paclitaxel (Taxol®).

OVCAR-3 (ovary) = assay: In vitro cell proliferation assay (SRB), OVCAR3; type: cell-based; conditions: Homo sapiens, SRB method, 96 hours, read-out: Inhibition of cell growth (IC50, μM) OVCAR3
Description: as §1, §2, §3, §4, §5

HCT116 cells = assay: In vitro cell cycle analysis (PI staining); type: cell-based, Human; conditions: HCT116, 0.3 uM, 12 hours; for % Cells in S: DMSO control 20.5; for % Cells in G1: DMSO control 39.4; for % Cells in G2/M: DMSO control 40.1
Description: as §1
This assay was used to determine the ability of 5, 6, or 7-substituted-3-(hetero)arylisoquinolinamine compounds to arrest cells at a specific phase during cell cycle. The day before drug treatment, HCT116 cells were plated at 50-70% saturation in a 10 cm dish in RPMI1640 medium with 10% FBS and then incubated overnight in a humidified 37° C. incubator with 5% CO2. The following day RPMI1640 medium (with 10% FBS) carrying the appropriate concentration of test compound solubilized in DMSO was added to the dishes. No compound control treatment was also included (0.25% DMSO). The cells were then incubated for 12 hours and were harvested by centrifugation at 7,000 rpm for 5 minutes. Cell pellets were resuspended in 0.2 ml of PBS containing 0.1% glucose and 2% FBS. Subsequently, 5 ml ice-cold 70% ethanol was added dropwise with shaking and the treated cells were stored at −20° C. at least 30 minutes. Cells were centrifuged at 2,000 rpm for 5 minutes and washed once with 1 ml PBS with 0.1% glucose and 2% FBS. After removal of the supernatant, cells were resuspended in 0.5 ml of 70 μM propium iodide (PI) solution containing 0.1% Triton X-100, 40 mM sodium citrate, pH 7.4. RNase was added at 50 μg/ml final concentration and cells were incubated at 37° C. for 30 minutes. PI stained cells were analyzed by Guava PCA-AFP instrument using its cell cycle software program (Guava Technologies, Hayward, Calif.) and expressed as percentage of cells in G1, S and G2/M phases of the cell cycle.

[3] = SRB method, 96 hours, Table 3, read-out: Inhibition of cell growth (IC50, μM) HCT116
[4] = Table 5, read-out: Inhibition of cell growth, IC50 (μM) HCT116

SMILES	IC50 (SNB-19 (glioblastoma)) [µM]	IC50 (MDA-MB-231 (breast)) [µM]	IC50 (HCT116 (colon); [3]) [µM]	IC50 (SK-MEL-28 (melanoma)) [µM]	IC50 (PC3 (prostate)) [µM]	IC50 (PANC-1 (pancreas)) [µM]	IC50 (OVCAR-3 (ovary)) [µM]	IC50 (Caki-1 (kidney)) [µM]	activity in growth inhibition of human cancer cell compared to Compound 23 (human cancer cell lines)	times more active than compound 23 in tested cell lines (human cancer cell lines)	IC50 (HCT116 (colon); [4]) [µM]	% Inhibition of HCT-15 human colorectal cancer in mice at 29 days [1] [%]	IC50 [2] [µM]	antitumor activity compared with paclitaxel [2]	% Cells in S (HCT116 cells) [%]	% Cells in G1 (HCT116 cells) [%]	% Cells in G2/M (HCT116 cells) [%]	other results
COc1cccc(-c2cc3ccc(N(C)C)cc3c(N)n2)c1.Cl [Compound 13, 3-(3-methoxyphenyl)-N^7,N^7-dimethylisoquinoline-1,7-diamine hydrochloride]	0.032	0.021	0.017	0.032	0.019	0.019	0.014	0.022	equal or better activity	five to thirteen times more active	0.017	69.2	0.015	higher antitumor activities than that of paclitaxel	–	–	–	Tolerability of treatment ([1]; nude mice): well tolerated without deaths; body weight fluctuations ([1]; nude mice): no more than 1 g
CC(=O)O[C@H]1C(=O)[C@@]2(C)[C@H]([C@H](OC(=O)c3ccccc3)[C@]3(O)C[C@H](OC(=O)[C@H](O)[C@@H](NC(=O)c4ccccc4)c4ccccc4)C(C)=C1C3(C)C)[C@]1(OC(C)=O)CO[C@@H]1C[C@@H]2O [Paclitaxel, paclitaxel, reference compound]	–	–	–	–	–	–	–	–	–	–	0.002	48.8	0.14	–	–	–	–	loss of activity in HCT-15 cells when IC50 values compared in both colon cancer cells ([2]; HCT-15 versus HCT116): 70 fold

More lines, main results first:

IC50 (SNB-19 (glioblastoma)) [µM]	IC50 (MDA-MB-231 (breast)) [µM]	IC50 (HCT116 (colon); [3]) [µM]	IC50 (SK-MEL-28 (melanoma)) [µM]	IC50 (PC3 (prostate)) [µM]	IC50 (PANC-1 (pancreas)) [µM]	IC50 (OVCAR-3 (ovary)) [µM]	SMILES	IC50 (Caki-1 (kidney)) [µM]	activity in growth inhibition of human cancer cell compared to Compound 23 (human cancer cell lines)	times more active than compound 23 in tested cell lines (human cancer cell lines)	IC50 (HCT116 (colon); [4]) [µM]	% Inhibition of HCT-15 human colorectal cancer in mice at 29 days [1] [%]	IC50 [2] [µM]	antitumor activity compared with paclitaxel [2]	% Cells in S (HCT116 cells) [%]	% Cells in G1 (HCT116 cells) [%]	% Cells in G2/M (HCT116 cells) [%]	other results
0.028	0.021	0.023	0.032	0.024	0.018	0.016	Cc1cccc(-c2cc3ccc(N(C)C)cc3c(N)n2)c1.Cl [Compound 14, N^7,N^7-Dimethyl-3-m-tolylisoquinoline-1,7-diamine hydrochloride]	0.023	equal or better activity	five to thirteen times more active	0.023	–	0.021	higher antitumor activities than that of paclitaxel	7.6	10.3	82.1	–
0.26	0.15	0.19	0.35	0.24	0.24	0.15	Cc1ccc2c(N)nc(-c3ccccc3C)cc2c1.Cl [Compound 23, 6-Methyl-3-o-tolylisoquinolin-1-amine hydrochloride salt]	0.12	–	–	–	–	–	–	–	–	–	melting point: 269.1 to 270.2 °C
0.12	0.051	0.074	0.12	0.12	0.079	0.075	Cc1ccc2cc(-c3c(C)cccc3C)nc(N)c2c1 [Compound 43, 7-Methyl-3-(2,6-dimethylphenyl)isoquinolin-1-amine]	0.048	equal or better activity	–	–	–	–	–	10.8	15.3	73.9	–
